Where two headings read alike, the source gives them in different places.
Assays:
[1] = target: T1, PI3K α (Homo sapiens, UniProt P42336); test: In vitro PI3 kinase enzyme assay (alpha), ATP loss, bioluminescence; assay type: biochemical; settings: read-out: PI3Kα ATP loss IC50;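 also: purified p110α/p85 heterodimer acting on PtdIns(4,5)P2 at room temperature, remaining ATP read by luminescence, inhibition scaled between compound-free wells with and without enzyme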
T1 construct: Full length p110 subunits of PI3K α, β and δ, N-terminally labeled with polyHis tag; polyHis (N); made in house; host or cells: Sf9 insect cells (baculovirus)
T1 sequence (P42336 whole entry, species assumed): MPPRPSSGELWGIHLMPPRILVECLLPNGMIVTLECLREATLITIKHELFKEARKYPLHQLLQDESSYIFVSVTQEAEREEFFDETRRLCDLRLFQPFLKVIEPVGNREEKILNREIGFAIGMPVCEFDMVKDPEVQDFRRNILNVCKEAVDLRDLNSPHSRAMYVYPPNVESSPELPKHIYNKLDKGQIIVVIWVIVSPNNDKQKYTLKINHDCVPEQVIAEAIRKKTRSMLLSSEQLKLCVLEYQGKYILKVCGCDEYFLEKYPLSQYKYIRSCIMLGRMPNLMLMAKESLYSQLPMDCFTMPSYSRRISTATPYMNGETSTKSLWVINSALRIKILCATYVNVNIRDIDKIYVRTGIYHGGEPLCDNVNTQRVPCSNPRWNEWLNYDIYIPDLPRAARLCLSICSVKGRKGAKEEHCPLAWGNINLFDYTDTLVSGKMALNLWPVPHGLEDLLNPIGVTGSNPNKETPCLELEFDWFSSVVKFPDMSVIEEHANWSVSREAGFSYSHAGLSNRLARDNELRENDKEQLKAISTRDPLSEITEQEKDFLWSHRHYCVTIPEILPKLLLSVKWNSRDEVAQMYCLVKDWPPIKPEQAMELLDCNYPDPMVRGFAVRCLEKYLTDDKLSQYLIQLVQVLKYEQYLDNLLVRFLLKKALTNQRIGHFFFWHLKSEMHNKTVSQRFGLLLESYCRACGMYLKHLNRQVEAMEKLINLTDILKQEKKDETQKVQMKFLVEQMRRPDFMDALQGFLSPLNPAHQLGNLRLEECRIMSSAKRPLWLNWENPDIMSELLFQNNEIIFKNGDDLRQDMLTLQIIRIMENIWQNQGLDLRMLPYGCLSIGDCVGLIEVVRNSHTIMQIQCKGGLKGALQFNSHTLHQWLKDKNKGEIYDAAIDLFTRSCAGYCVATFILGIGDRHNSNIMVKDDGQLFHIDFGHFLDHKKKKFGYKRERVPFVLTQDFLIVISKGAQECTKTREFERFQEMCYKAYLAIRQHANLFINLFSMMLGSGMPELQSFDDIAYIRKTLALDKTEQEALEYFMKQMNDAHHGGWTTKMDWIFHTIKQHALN
T1 sequence (P27986 whole entry partner, species assumed): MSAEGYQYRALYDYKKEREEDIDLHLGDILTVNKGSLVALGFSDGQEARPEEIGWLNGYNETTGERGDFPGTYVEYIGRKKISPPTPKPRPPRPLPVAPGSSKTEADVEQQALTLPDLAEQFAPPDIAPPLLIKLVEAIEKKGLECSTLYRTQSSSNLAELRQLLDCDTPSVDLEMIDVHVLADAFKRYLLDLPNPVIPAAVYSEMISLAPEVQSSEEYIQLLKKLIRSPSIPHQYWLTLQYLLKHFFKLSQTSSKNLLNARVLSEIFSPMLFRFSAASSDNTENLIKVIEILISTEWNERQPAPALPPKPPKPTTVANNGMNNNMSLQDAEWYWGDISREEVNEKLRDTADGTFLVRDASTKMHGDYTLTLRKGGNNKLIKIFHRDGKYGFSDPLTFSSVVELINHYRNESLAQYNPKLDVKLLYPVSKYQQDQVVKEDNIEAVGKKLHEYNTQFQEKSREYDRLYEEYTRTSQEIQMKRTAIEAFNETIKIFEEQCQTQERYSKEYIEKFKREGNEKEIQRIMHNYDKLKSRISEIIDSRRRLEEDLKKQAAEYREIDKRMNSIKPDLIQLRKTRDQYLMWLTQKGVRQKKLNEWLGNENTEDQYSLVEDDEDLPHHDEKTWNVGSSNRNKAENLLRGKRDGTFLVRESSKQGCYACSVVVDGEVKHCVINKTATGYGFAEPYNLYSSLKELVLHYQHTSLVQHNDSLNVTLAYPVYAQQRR
Protocol: Full length p110 subunits of PI3K α, β and δ, N-terminally labeled with polyHis tag, were co-expressed with p85 in baculovirus expression vectors in sf9 insect cells. P110/p85 heterodimers were purified by sequential Ni-NTA, Q-HP, and Superdex-100 chromatography. Purified α, β and δ isozymes were stored at −20° C. in 20 mM Tris, pH 8, 0.2M NaCl, 50% glycerol, 5 mM DTT, 2 mM Na cholate.
PI3K enzyme assays (alpha, beta, delta and gamma) were performed in 25 mL with the above final concentrations of components in white polypropylene plates (Costar catalogue #3355). Phosphatidyl inositol phosphoacceptor, PtdIns(4,5)P2 (eg. P4508) was obtained from Echelon Biosciences. The ATPase activity of the alpha and gamma isozymes was not greatly stimulated by PtdIns(4,5)P2 under these conditions and was therefore omitted from the assay of these isozymes. Test compounds were dissolved in DMSO and diluted with three-fold serial dilutions. The compound in DMSO (1 μL) was added per test well, and the inhibition relative to reactions containing no compound, with and without enzyme was determined. After assay incubation at RT, the reaction was stopped and residual ATP determined by addition of an equal volume of a commercial ATP bioluminescence kit (Perkin Elmer EasyLite) according to the manufacturer's instructions, and detected using an Analyst GT luminometer.

[2] = target: T2, PI3K β (Homo sapiens, UniProt P42338); test: In vitro PI3 kinase enzyme assay (beta), ATP loss, bioluminescence; assay type: biochemical; settings: read-out: PI3Kβ ATP loss IC50;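 also: purified p110β/p85 heterodimer with PtdIns(4,5)P2 as acceptor, incubated at room temperature, leftover ATP read by luminescence, inhibition scaled to compound-free wells with and without enzyme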
T2 construct: Full length p110 subunits of PI3K α, β and δ, N-terminally labeled with polyHis tag; polyHis (N); made in house; host or cells: Sf9 insect cells (baculovirus)
T2 sequence (P42338 whole entry): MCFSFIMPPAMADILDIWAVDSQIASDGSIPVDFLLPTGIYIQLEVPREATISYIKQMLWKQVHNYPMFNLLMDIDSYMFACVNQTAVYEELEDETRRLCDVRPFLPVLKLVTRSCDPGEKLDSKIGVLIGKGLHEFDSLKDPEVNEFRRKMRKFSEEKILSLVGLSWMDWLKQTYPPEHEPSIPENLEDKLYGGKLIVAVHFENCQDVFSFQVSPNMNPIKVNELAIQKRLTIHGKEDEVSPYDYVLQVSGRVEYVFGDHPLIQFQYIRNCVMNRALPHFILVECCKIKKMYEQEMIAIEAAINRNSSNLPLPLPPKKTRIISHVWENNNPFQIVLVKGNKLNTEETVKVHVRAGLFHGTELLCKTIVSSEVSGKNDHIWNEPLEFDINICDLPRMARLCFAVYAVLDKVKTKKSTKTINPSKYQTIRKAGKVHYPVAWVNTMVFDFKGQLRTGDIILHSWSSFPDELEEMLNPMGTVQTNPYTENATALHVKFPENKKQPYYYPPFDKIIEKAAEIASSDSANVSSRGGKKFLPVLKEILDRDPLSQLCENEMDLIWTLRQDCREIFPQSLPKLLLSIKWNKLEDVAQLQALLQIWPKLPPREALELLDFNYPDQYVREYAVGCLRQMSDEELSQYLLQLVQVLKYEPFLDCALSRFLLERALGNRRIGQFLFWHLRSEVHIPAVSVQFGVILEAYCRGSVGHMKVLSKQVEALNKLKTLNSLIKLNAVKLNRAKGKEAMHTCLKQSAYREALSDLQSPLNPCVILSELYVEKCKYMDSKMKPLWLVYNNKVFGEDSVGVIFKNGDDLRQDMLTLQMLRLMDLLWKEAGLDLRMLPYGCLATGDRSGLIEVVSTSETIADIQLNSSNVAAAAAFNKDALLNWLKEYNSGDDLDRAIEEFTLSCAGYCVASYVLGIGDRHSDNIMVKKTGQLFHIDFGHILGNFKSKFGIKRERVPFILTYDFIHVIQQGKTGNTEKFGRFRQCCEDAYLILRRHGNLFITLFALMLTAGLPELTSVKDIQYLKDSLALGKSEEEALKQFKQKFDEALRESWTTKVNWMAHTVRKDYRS
T2 sequence (P27986 whole entry partner): as the sequence (P27986 whole entry partner, species assumed) above

[3] = tested on: phosphorylation of Serine 473 in Akt, HCT 116 human colon carcinoma cells; test: Cell-based phospho-AKT Ser473 assay (MSD sandwich immunoassay, IGF-1 stimulated)
Protocol: This assay determines the ability of test compounds to inhibit the phosphorylation of […] in Akt using a MSD based sandwich immunoassay (Meso Scale Detection, catalogue # N411CAB-1). […] Prior to the assay cells were detached from the culture flask with trypsin, and re-suspended in complete media to give a final concentration of 1.6×10^5 cells per ml. Aliquots (100 μl) of the HCT116 cell suspension were seeded into each well of a 96 well tissue culture plate (Corning Incorporated COSTAR, catalogue#3595) to give a final density of 16,000 cells per well. Cells were then incubated overnight at 37° C. The following day the cells were treated with serially diluted test compounds and incubated for 2 hours at 37° C. […] As a maximum response control, wells contained 0.5% DMSO in place of test compound. The plates were mixed at 700 rpm for 2 min to ensure even distribution of the test compound and incubated for 2 hours at 37° C. Cells were then stimulated with insulin-like growth factor 1 (Sigma, product #13769) at final concentration of 100 ng/ml for 15 minutes at 37° C. The media was then removed and the cells treated with 80 μl cell-lysis buffer (MSD) containing a cocktail of protease and phosphatase inhibitors for one hour at 4° C. […] The detection antibody was removed and plates were then washed four times with 200 μl per well of Tris wash buffer. An aliquot of 150 μl of diluted MSD read buffer was then applied to each well, and the electrochemiluminescent signal was measured using a MSD SECTORTM plate reader. This instrument measures the intensity of emitted light to determine a quantitative measure of phosphorylated Akt in each well. The dose-response data obtained with each compound were analyzed and the IC50 inhibition of Akt phosphorylation at Ser473 calculated.

[4] = Homo sapiens, HCT-116, HCT 116 cells, read-out: HCT 116 pAKT IC50

CC(=O)Nc1nc2ccc(-c3cnc(Cl)c(NS(=O)(=O)C4CCCCC4)c3)cc2s1 [Example 171, N-(6-(6-chloro-5-(cyclohexanesulfonamido)pyridin-3-yl)benzo[d]thiazol-2-yl)acetamide]
IC50 [1]: 3.2 nM | IC50 [2]: 26.3 nM | IC50 ([3]; Homo sapiens, HCT-116, read-out: HCT 116 pAKT IC50): 43.3 nM

CC(=O)Nc1nc2ccc(-c3ccnc(N(C)S(=O)(=O)c4ccc(C(C)(C)C)cc4)n3)cc2s1 [Example 205, N-(6-(2-(4-tert-butyl-N-methylphenylsulfonamido)pyrimidin-4-yl)benzo[d]thiazol-2-yl)acetamide]
IC50 [1]: 29.5 nM | IC50 [2]: 87.2 nM | IC50 [3, 4]: 57.6 nM

CC(=O)Nc1nc2ccc(-c3cnc(Cl)c(O[C@H]4CCOC4)c3)cc2s1 [Example 236, N-(6-(6-chloro-5-((S)-tetrahydrofuran-3-yloxy)pyridin-3-yl)benzo[d]thiazol-2-yl)acetamide]
IC50 [1]: 150 nM | IC50 [2]: 1370 nM | IC50 [3, 4]: 828 nM

CC(=O)Nc1nc2ccc(-c3ccnc(NS(=O)(=O)c4ccccc4)n3)cc2s1 [Example 77, N-(6-(2-(Phenylsulfonamido)pyrimidin-4-yl)benzo[d]thiazol-2-yl)acetamide]
IC50 [1]: 84.8 nM | IC50 [2]: 543 nM | IC50 [3, 4]: 2350 nM

CC(=O)Nc1nc2ccc(-c3cnc(Cl)c(NS(=O)(=O)c4ccc(C)cc4)c3)cc2s1 [Example 189, N-(6-(6-chloro-5-(4-methylphenylsulfonamido)pyridin-3-yl)benzo[d]thiazol-2-yl)acetamide]
IC50 [1]: 6.4 nM | IC50 [2]: 7.7 nM | IC50 [3, 4]: 3.9 nM

CNc1nc2ccc(-c3cnc(Cl)c(NS(=O)(=O)c4ccc(C(C)=O)cc4)c3)cc2s1 [Example 321, 4-acetyl-N-(2-chloro-5-(2-(methylamino)-1,3-benzothiazol-6-yl)-3-pyridinyl)benzenesulfonamide]
IC50 [1]: 12 nM | IC50 [2]: 22.2 nM | IC50 [3, 4]: 672 nM

COc1ccc(S(=O)(=O)c2cccc(-c3ccc4nc(NC(C)=O)sc4c3)n2)cc1 [Example 68, N-(6-(6-(4-Methoxyphenylsulfonyl)pyridin-2-yl)benzo[d]thiazol-2-yl)acetamide]
IC50 [1]: 86.5 nM | IC50 [2]: 676 nM | IC50 [3, 4]: 664 nM

CC(=O)Nc1nc2ccc(-c3ccnc(N(C)S(=O)(=O)c4ccc(C)c(C)c4)n3)cc2s1 [Example 210, N-(6-(2-(N,3,4-trimethylphenylsulfonamido)pyrimidin-4-yl)benzo[d]thiazol-2-yl)acetamide]
IC50 [1]: 14.7 nM | IC50 [2]: 39.1 nM | IC50 [3, 4]: 59.3 nM

CC(=O)Nc1nc2ccc(-c3cnc(C#N)c(N)c3)cc2s1 [Example 268, N-(6-(5-amino-6-cyanopyridin-3-yl)benzo[d]thiazol-2-yl)acetamide]
IC50 [1]: 241 nM | IC50 [2]: 17000 nM | IC50 [3, 4]: 842 nM

Nc1nc2ccc(-c3cnc(Cl)c(NS(=O)(=O)c4ccc(F)cc4Cl)c3)cc2s1 [Example 309, N-(5-(2-amino-1,3-benzothiazol-6-yl)-2-chloro-3-pyridinyl)-2-chloro-4-fluorobenzenesulfonamide]
IC50 [1]: 14.9 nM | IC50 [2]: 36.8 nM | IC50 [3, 4]: 496 nM

Cc1ccc(S(=O)(=O)Nc2nnc(-c3ccc4nc(NC(=O)OC(C)(C)C)sc4c3)o2)cc1 [Example 166, tert-Butyl 6-(5-(4-methylphenylsulfonamido)-1,3,4-oxadiazol-2-yl)benzo[d]thiazol-2-ylcarbamate]
IC50 [1]: 336 nM | IC50 [2]: 2200 nM | IC50 [3, 4]: 239 nM

CC(=O)Nc1nc2ccc(-c3ccnc(N(C)S(=O)(=O)c4cccc(C)c4)n3)cc2s1 [Example 93, N-(6-(2-(N,3-Dimethylphenylsulfonamido)pyrimidin-4-yl)benzo[d]thiazol-2-yl)acetamide]
IC50 [1]: 102 nM | IC50 [2]: 174 nM | IC50 [3, 4]: 218 nM

CNc1nc2ccc(-c3cnc(Cl)c(NS(=O)(=O)c4ccc(C(C)(C)NC(C)=O)cc4)c3)cc2s1 [Example 322, N-(1-(4-((2-chloro-5-(2-(methylamino)-1,3-benzothiazol-6-yl)-3-pyridinyl)sulfamoyl)phenyl)-1-methylethyl)acetamide]
IC50 [1]: 10.8 nM | IC50 [2]: 25.4 nM | IC50 [3, 4]: 558 nM

CCCCS(=O)(=O)Nc1cc(-c2ccc3nc(NC(C)=O)sc3c2)cnc1Cl [Example 178, N-(6-(5-(butylsulfonamido)-6-chloropyridin-3-yl)benzo[d]thiazol-2-yl)acetamide]
IC50 [1]: 10.6 nM | IC50 [2]: 19.9 nM | IC50 [3, 4]: 15.6 nM

CC(=O)NC(C)(C)c1ccc(S(=O)(=O)Nc2cc(-c3ccc4nc(N)sc4c3)cnc2Cl)cc1 [Example 323, N-(1-(4-((5-(2-amino-1,3-benzothiazol-6-yl)-2-chloro-3-pyridinyl)sulfamoyl)phenyl)-1-methylethyl)acetamide]
IC50 [1]: 19.6 nM | IC50 [2]: 33.2 nM | IC50 [3, 4]: 915 nM

CC(=O)Nc1nc2ccc(-c3cnc(Cl)c(NS(=O)(=O)c4ccc(C(C)O)cc4)c3)cc2s1 (single isomer, unassigned) [Example 258]
IC50 [1]: 7.6 nM | IC50 [2]: 11.4 nM | IC50 ([3]; HCT 116 cells, read-out: HCT 116 pAKT IC50): 48.8 nM

CC(=O)Nc1nc2ccc(-c3ccnc(NCc4ccccc4)n3)cc2s1 [Example 49, N-(6-(2-(benzylamino)-4-pyrimidinyl)-1,3-benzothiazol-2-yl)acetamide]
IC50 [1]: 418 nM | IC50 [2]: 1450 nM | IC50 [3, 4]: 15300 nM

CC(=O)Nc1nc2ccc(-c3cnc(Cl)c(OC(C)=O)c3)cc2s1 [Example 303, 5-(2-acetamidobenzo[d]thiazol-6-yl)-2-chloropyridin-3-yl acetate]
IC50 [1]: 2 nM | IC50 [2]: 12.2 nM | IC50 [3, 4]: 1.7 nM

CC(=O)c1ccc(S(=O)(=O)Nc2cc(-c3ccc4nc(N)sc4c3)cnc2Cl)cc1 [Example 325, 4-acetyl-N-(5-(2-amino-1,3-benzothiazol-6-yl)-2-chloro-3-pyridinyl)benzenesulfonamide]
IC50 [1]: 18 nM | IC50 [2]: 20.6 nM | IC50 [3, 4]: 468 nM

CN(C)c1cc(-c2ccc3nc(N)sc3c2)cnc1Cl [Example 274, 6-(6-Chloro-5-(dimethylamino)pyridin-3-yl)benzo[d]thiazol-2-amine]
IC50 [1]: 191 nM | IC50 [2]: 613 nM | IC50 [3, 4]: 985 nM

CC(=O)Nc1nc2ccc(-c3cncc(F)c3)cc2s1 [Example 289, N-(6-(5-Fluoropyridin-3-yl)benzo[d]thiazol-2-yl)acetamide]
IC50 [1]: 96.3 nM | IC50 [2]: 3210 nM | IC50 [3, 4]: 450 nM

COc1ccc(S(=O)(=O)N(C)c2nccc(-c3cc(F)c4nc(NC(C)=O)sc4c3)n2)cc1 [Example 143, N-(4-fluoro-6-(2-(((4-methoxyphenyl)sulfonyl)(methyl)amino)-4-pyrimidinyl)-1,3-benzothiazol-2-yl)acetamide]
IC50 [1]: 111 nM | IC50 [2]: 109 nM | IC50 [3, 4]: 328 nM

COc1ccc(S(=O)(=O)c2cccc(-c3cc(F)c4nc(NC(C)=O)sc4c3)n2)cc1 [Example 148, N-(4-fluoro-6-(6-((4-methoxyphenyl)sulfonyl)-2-pyridinyl)-1,3-benzothiazol-2-yl)acetamide]
IC50 [1]: 151 nM | IC50 [2]: 1360 nM | IC50 [3, 4]: 881 nM

COc1nccc(-c2ccc3nc(NC(C)=O)sc3c2)n1 [Example 51, N-(6-(2-methoxy-4-pyrimidinyl)-1,3-benzothiazol-2-yl)acetamide]
IC50 [1]: 505 nM | IC50 [2]: > 40000 nM | IC50 [3, 4]: 952 nM

CC(=O)Nc1nc2ccc(-c3cnc(Cl)c(NS(=O)(=O)c4ccc(OC(F)F)cc4)c3)cc2s1 [Example 182, N-(6-(6-chloro-5-(4-(difluoromethoxy)phenylsulfonamido)pyridin-3-yl)benzo[d]thiazol-2-yl)acetamide]
IC50 [1]: 6 nM | IC50 [2]: 6 nM | IC50 [3, 4]: 24.9 nM

COc1ccc(-c2ccc3nc(NC(C)=O)sc3c2)cn1 [Example 242, N-(6-(6-methoxypyridin-3-yl)benzo[d]thiazol-2-yl)acetamide]
IC50 [1]: 73.9 nM | IC50 [2]: > 40000 nM | IC50 [3, 4]: 636 nM

COc1ccc(S(=O)(=O)N(C)c2cncc(-c3ccc4nc(NC(C)=O)sc4c3)n2)cc1 [Example 126, N-(6-(6-(((4-methoxyphenyl)sulfonyl)(methyl)amino)-2-pyrazinyl)-1,3-benzothiazol-2-yl)acetamide]
IC50 [1]: 27.1 nM | IC50 [2]: 321 nM | IC50 [3, 4]: 80.6 nM

CC(=O)Nc1nc2ccc(-c3ccnc(N(C)S(=O)(=O)c4ccc(C(F)(F)F)cc4)n3)cc2s1 [Example 213, N-(6-(2-(N-methyl-4-(trifluoromethyl)phenylsulfonamido)pyrimidin-4-yl)benzo[d]thiazol-2-yl)acetamide]
IC50 [1]: 91.3 nM | IC50 [2]: 119 nM | IC50 [3, 4]: 92.8 nM

Source: patent US7928140B2, “Benzothiazole PI3 kinase modulators for cancer treatment” (Amgen Inc., priority 2007, dated 2011)
